{"source": "patent US8877980B2", "about": "“Phenylboronic acid” (Al-Urdonia Lemudaddat Al-Ajsam Co., priority 2012, dated 2014)", "key": {"S. aureus ATCC 2592 [1]": {"test_system": "S. aureus ATCC 2592", "assay": "Disk diffusion", "type": "cell-based"}, "E. coli ATCC 8739 [2]": {"test_system": "E. coli ATCC 8739", "assay": "Disk diffusion", "type": "cell-based", "procedure": "(§1) The following bacterial strains were used; S. aureus ATCC 29350, E. coli ATCC 8739, and P. aeruginosa ATCC 27853. The cultivation medium for P. aeruginosa and E. coli were tryptone soy Agar (Oxoid, UK), and, 5% defibrinated sheep blood added to columbia blood agar base (Oxoid, UK). The bacterial cultures were aerobically grown at 37° C. for 24 hrs. For antimicrobial testing, the bacterial cultures were prepared by picking colonies from logarithmic phase of growth and suspended in 5 ml of Mueller Hinton broth with suitable supplements. The bacterium inoculum sizes were adjusted to 10^8 CFU/ml for all strains.\n(§2) solutions of 2-(bromoacetamido)phenylboronic acid were prepared by gradually dissolving 2-(bromoacetamido)phenylboronic acid to the maximum solubility in 100% DMSO (1 mg/ml). Similarly standard stock solution of Vancomycin and Penicillin (1 mg/ml) were used as positive controls.\n(§3) For the disk diffusion assay, bacterial suspensions were prepared to the standard McFarland's (0.5) and subsequently uniformly spread on a solid growth medium in a Petri dish. Sterile paper disks (6 mm in diameter; oxoid, UK) were placed on the surface of each agar plate and were impregnated with 30 μL to a final concentration of 600 ug/ml of each agent to be tested. The plates were incubated for the recommended time periods (18-24 hrs) under appropriate cultivation conditions. Antibacterial activity was determined by measuring an inhibition zone around a disk following the incubation. Disks impregnated with sterile distilled water, DMSO served as negative controls and disks with standard antibiotics Vancomycin and penicillin (Oxoid, UK) served as positive controls. Triplicates at each concentration were performed and the average of the results was taken."}, "S. aureus ATCC 2592 [3]": {"test_system": "S. aureus ATCC 2592", "assay": "Broth microdilution MIC determination", "type": "cell-based", "conditions": "Staphylococcus aureus, ATCC2592, 24 h, MTT readout"}, "MRSA clinical strain [4]": {"test_system": "MRSA clinical strain", "assay": "Broth microdilution MIC determination", "type": "cell-based, methicillin resistant S. aureus", "conditions": "for MIC: Staphylococcus aureus, 24 h"}, "E. coli ATCC 8739 [5]": {"test_system": "E. coli ATCC 8739", "assay": "Broth microdilution MIC determination", "type": "cell-based", "procedure": "as §1, §2\nFor the broth microdilution test, 100 μL of each bacterial suspension in suitable growth medium was added to the wells of a sterile 96-well microtitre plate already containing 100 μL of two-fold serially diluted 2-(bromoacetamido)phenylboronic acid or vancomycin and penicillin in proper growth medium. The final volume in each well was 200 μL. Control wells were prepared with culture medium, bacterial suspension only compound only and DMSO in amounts corresponding to the highest quantity present. […]"}, "P. aerugionsa ATCC 27853 [6]": {"test_system": "P. aerugionsa ATCC 27853", "assay": "Broth microdilution MIC determination", "type": "cell-based, P. aeruginosa", "conditions": "for MIC: Pseudomonas aeruginosa", "procedure": "as §1, §2\nFor the broth microdilution test, 100 μL of each bacterial suspension in suitable growth medium was added to the wells of a sterile 96-well microtitre plate already containing 100 μL of two-fold serially diluted 2-(bromoacetamido)phenylboronic acid or vancomycin and penicillin in proper growth medium. The final volume in each well was 200 μL. Control wells were prepared with culture medium, bacterial suspension only compound only and DMSO in amounts corresponding to the highest quantity present. […] To indicate cell viability, the presence of a purple color was determined after adding 20 μL/well of 500 ug/ml MTT (3-(4,5-Dimethylthiazol-2-yl-2,5-diphenyltetrazolium bromide, Sigma) and incubated under appropriate cultivation conditions (37° C. for 3 hrs). To determine the formation of formazan by living cells, OD570 was measured by a Microplate Reader (Thermoscientific, Finland) after adding 200 μL/well of a solubilizing solution (a mixture of DMSO:ethanol (1:1)). Positive controls were wells with a bacterial suspension in an appropriate growth medium. Negative controls were wells with growth medium and antimicrobial compound. […]"}, "[7]": {"assay": "Single dose acute toxicity study and LD50 determination", "type": "in vivo, mice", "conditions": "mouse, in vivo; acute oral, dissolved in DMSO, BALB/c mice; curve generated", "procedure": "(§4) Results of Acute Toxicity of 2-(bromoacetamido)phenylboronic Acid in Balb/c Mice\n(§5) • a. […] This effect started 30 minutes post treatment. The activity was recovered after 3 hours post treatment (for survived animals). […] The time of deaths was observed as dose dependent. Mice treated with 150 mg/kg died within 18 hours of 2-(bromoacetamido)phenylboronic acid administration while mice treated with 200 mg/kg died within 4 hours post treatment. • e."}, "Balb/c Mice": {"test_system": "Balb/c Mice", "assay": "Single dose acute toxicity study and LD50 determination", "type": "in vivo", "procedure": "as §4, §5"}, "[8]": {"assay": "Maximum solubility in DMSO (stock solution)", "type": "physicochemical", "conditions": "100% DMSO, organic solvent or mixture, thermodynamic from solid", "procedure": "as §2"}, "P. aerugionsa ATCC 27853 [9]": {"test_system": "P. aerugionsa ATCC 27853", "assay": "Disk diffusion", "type": "cell-based", "conditions": "P. aeruginosa ATCC 27853", "procedure": "as §1, §2, §3"}, "MRSA clinical strain [10]": {"test_system": "MRSA clinical strain", "assay": "Disk diffusion", "type": "cell-based, methicillin resistant S. aureus"}}, "note": "Where two headings read alike, the source gives them in different places."}
{"smiles": "O=C(CBr)Nc1ccccc1B(O)O", "note": "[2-(bromoacetamido)phenylboronic acid]", "values": [{"measurement": "zone of inhibition at 600 µg/mL", "setting": "S. aureus ATCC 2592 [1]; Staphylococcus aureus, ATCC2592, agent concentration as in row label (vancomycin 100 μg/ml, compound 600 μg/ml)", "result": 24, "unit": "mm"}, {"measurement": "zone of inhibition at 600 µg/mL", "setting": "E. coli ATCC 8739 [2]; Escherichia coli, ATCC8739, agent concentration as in row label (ampicillin 20 mg/ml, compound 600 μg/ml)", "result": 16, "unit": "mm"}, {"measurement": "MIC", "setting": "S. aureus ATCC 2592 [3]", "result": 1.56, "unit": "µg/mL"}, {"measurement": "Growth inhibition (statement in words)", "setting": "MRSA clinical strain [4]; MRSA, general statement of the description, method not named", "result": "inhibits the growth"}, {"measurement": "MIC", "setting": "MRSA clinical strain [4]; MRSA clinical strain, MTT readout, read-out: MIC", "result": 1.56, "unit": "µg/mL"}, {"measurement": "Growth inhibition (statement in words)", "setting": "E. coli ATCC 8739 [5]; E. coli, general statement of the description, method not named", "result": "inhibits the growth"}, {"measurement": "MIC", "setting": "E. coli ATCC 8739 [5]; Escherichia coli, ATCC8739, E. coli ATCC 8739, 24 h, MTT readout", "result": 75, "unit": "µg/mL"}, {"measurement": "Growth inhibition (statement in words)", "setting": "P. aerugionsa ATCC 27853 [6]; P. aeruginosa, general statement of the description, method not named", "result": "inhibits the growth"}, {"measurement": "MIC", "setting": "P. aerugionsa ATCC 27853 [6]; ATCC27853, P. aeruginosa ATCC 27853, 24 h, MTT readout, read-out: MIC", "result": "> 600", "unit": "µg/mL"}, {"measurement": "LD50 at 14 days", "setting": "[7]", "result": "~130", "unit": "mg/kg"}, {"measurement": "% Death/group", "setting": "Balb/c Mice; 10 mg/kg single oral dose in DMSO", "result": 0, "unit": "%"}, {"measurement": "% Death/group", "setting": "Balb/c Mice; 50 mg/kg single oral dose in DMSO", "result": 0, "unit": "%"}, {"measurement": "% Death/group", "setting": "Balb/c Mice; 100 mg/kg single oral dose in DMSO", "result": 0, "unit": "%"}, {"measurement": "Time of death after administration", "setting": "Balb/c Mice; 150 mg/kg", "result": "≤ 18", "unit": "h"}, {"measurement": "% Death/group", "setting": "Balb/c Mice; 150 mg/kg single oral dose in DMSO", "result": 70, "unit": "%"}, {"measurement": "Time of death after administration", "setting": "Balb/c Mice; 200 mg/kg", "result": "≤ 4", "unit": "h"}, {"measurement": "% Death/group", "setting": "Balb/c Mice; 200 mg/kg single oral dose in DMSO", "result": 70, "unit": "%"}, {"measurement": "Behaviour and clinical signs post administration", "setting": "Balb/c Mice; 10, 50 and 100 mg/kg", "result": "behaved normally"}, {"measurement": "Behaviour and clinical signs post administration", "setting": "Balb/c Mice; 150 and 200 mg/kg", "result": "Reduced activity"}, {"measurement": "Start of reduced activity post treatment", "setting": "Balb/c Mice; 150 and 200 mg/kg", "result": 30, "unit": "min"}, {"measurement": "Recovery of activity post treatment", "setting": "Balb/c Mice; 150 and 200 mg/kg, survived animals", "result": 3, "unit": "h"}, {"measurement": "Doses showing systemic toxicity and causing death", "setting": "Balb/c Mice; acute oral, dissolved in DMSO, BALB/c mice", "result": "above 100 mg/kg"}, {"measurement": "Change in body weights", "setting": "Balb/c Mice; all groups", "result": "No significant change"}, {"measurement": "Gross autopsy", "setting": "Balb/c Mice; dead mice and all survivors at day 14", "result": "did not reveal any significant findings"}, {"measurement": "% Death/gender", "setting": "Balb/c Mice; females, 10 mg/kg single oral dose in DMSO", "result": 0, "unit": "%"}, {"measurement": "% Death/gender", "setting": "Balb/c Mice; females, 50 mg/kg single oral dose in DMSO", "result": 0, "unit": "%"}, {"measurement": "% Death/gender", "setting": "Balb/c Mice; females, 100 mg/kg single oral dose in DMSO", "result": 0, "unit": "%"}, {"measurement": "% Death/gender", "setting": "Balb/c Mice; females, 150 mg/kg single oral dose in DMSO", "result": 100, "unit": "%"}, {"measurement": "% Death/gender", "setting": "Balb/c Mice; males, 10 mg/kg single oral dose in DMSO", "result": 0, "unit": "%"}, {"measurement": "% Death/gender", "setting": "Balb/c Mice; males, 50 mg/kg single oral dose in DMSO", "result": 0, "unit": "%"}, {"measurement": "% Death/gender", "setting": "Balb/c Mice; males, 100 mg/kg single oral dose in DMSO", "result": 0, "unit": "%"}, {"measurement": "% Death/gender", "setting": "Balb/c Mice; males, 150 mg/kg single oral dose in DMSO", "result": 40, "unit": "%"}, {"measurement": "% Death/gender", "setting": "Balb/c Mice; males, 200 mg/kg single oral dose in DMSO", "result": 80, "unit": "%"}, {"measurement": "solubility", "setting": "[8]", "result": 1000, "unit": "µg/mL"}]}
{"smiles": "CC1(C)S[C@@H]2[C@H](NC(=O)[C@H](N)c3ccccc3)C(=O)N2[C@H]1C(=O)O", "note": "[Ampicillin, reference compound]", "values": [{"measurement": "Susceptibility category (S/R) beside zone of inhibition", "setting": "E. coli ATCC 8739 [2]", "result": "S"}, {"measurement": "Susceptibility category (S/R) beside zone of inhibition", "setting": "P. aerugionsa ATCC 27853 [9]", "result": "R"}, {"measurement": "MIC", "setting": "P. aerugionsa ATCC 27853 [6]; ATCC27853, 24 h", "result": 150, "unit": "µg/mL"}]}
{"smiles": "CN[C@H](CC(C)C)C(=O)N[C@H]1C(=O)N[C@@H](CC(N)=O)C(=O)N[C@H]2C(=O)N[C@H]3C(=O)N[C@H](C(=O)N[C@H](C(=O)O)c4cc(O)cc(O)c4-c4cc3ccc4O)[C@H](O)c3ccc(c(Cl)c3)Oc3cc2cc(c3O[C@@H]2O[C@H](CO)[C@@H](O)[C@H](O)[C@H]2O[C@H]2C[C@](C)(N)[C@H](O)[C@H](C)O2)Oc2ccc(cc2Cl)[C@H]1O", "note": "[Vancomycin, reference compound]", "values": [{"measurement": "Susceptibility category (S/R) beside zone of inhibition", "setting": "S. aureus ATCC 2592 [1]", "result": "S"}, {"measurement": "Susceptibility category (S/R) beside zone of inhibition", "setting": "MRSA clinical strain [10]", "result": "S"}, {"measurement": "MIC", "setting": "MRSA clinical strain [4]; MRSA", "result": 0.4, "unit": "µg/mL"}]}
